Laboratory results published in patent US5132216A, “Microbial transformation process for antihypertensive products” (Merck & Co., Inc., priority 1991, dated 1992).

Biological target: T1, Angiotensin II (A II) receptor (Oryctolagus cuniculus, UniProt P34976)
T1 sequence (P34976 1-359): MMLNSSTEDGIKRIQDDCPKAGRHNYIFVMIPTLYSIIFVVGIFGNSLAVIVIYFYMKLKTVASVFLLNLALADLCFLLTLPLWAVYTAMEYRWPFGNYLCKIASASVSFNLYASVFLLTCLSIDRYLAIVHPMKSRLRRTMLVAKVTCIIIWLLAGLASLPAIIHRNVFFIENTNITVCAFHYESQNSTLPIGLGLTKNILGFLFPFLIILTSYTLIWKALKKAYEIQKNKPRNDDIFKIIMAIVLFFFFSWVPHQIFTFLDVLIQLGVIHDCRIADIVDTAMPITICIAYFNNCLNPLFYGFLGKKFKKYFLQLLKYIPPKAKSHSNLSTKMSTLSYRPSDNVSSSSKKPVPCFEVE
Test: Receptor binding assay using rabbit aortae membrane preparation (125I-Sar1Ile8-angiotensin II displacement, "IC50" assay)
Description: This assay is also referred to herein as the "IC50 " assay.
Receptor binding assay using rabbit aortae membrane preparation
Three frozen rabbit aortae (obtained from Pel-Freeze Biologicals) were suspended in 5 mM Tris-0.25M Sucrose, pH 7.4 buffer (50 ml) homogenized, and then centifuged. The mixture was filtered through a cheesecloth and the supernatant was centrifuged for 30 minutes at 20,000 rpm at 4° C. The pellet thus obtained was resuspended in 30 ml of 50 mM Tris-5 mM MgCl2 buffer containing 0.2% Bovine Serum Albumin and 0.2 mg/ml Bacitration and the suspension was used for 100 assay tubes. Samples tested for screening were done in duplicate. To the membrane preparation (0.25 ml) there was added ^125 I-Sar^1 Ile^8 -angiotensin II [obtained from New England Nuclear] (10 ul; 20,000 cpm) with or without the test sample and the mixture was incubated at 37° C. for 90 minutes. The mixture was then diluted with ice-cold 50 mM Tris-0.9% NaCl, pH 7.4 (4 ml) and filtered through a glass fiber filter (GF/B Whatman 2.4" diameter). The filter was soaked in scintillation cocktail (10 ml) and counted for radioactivity using Packard 2660 Tricarb liquid scintillation counter. […]

Cc1cc(CO)nc2c1nc(C(C)O)n2Cc1ccc(-c2ccccc2-c2nnn[nH]2)cc1 (stereo not shown) [compound (IV)]
A II antagonist activity by the IC50 assay: exhibit A II antagonist activity
